Data on seven compounds can be found in patent US12268710B2, “Method of treating severe forms of pulmonary hypertension” (ReversPAH LLC, priority 2019, dated 2025).

In data set [1] the test system is Sugen/Hypoxia rats (SuHx) with established PAH. Kind of data set: Sugen 5416/chronic hypoxia rat model of severe angio-obliterative PAH. The class given is in vivo. The method, then: Specifically, FIGS. 4A and B, which are from the paper which included Norbert F. Voelkel as a senior author, show the compared results of control rats, Sugen/Hypoxia rats (SuHx) with established PAH, and SuHx rats treated with TTM in an amount of 10 mg/kg every other day for 10 days. […] FIG. 5 provides the results, which compares the degree of obliteration of c-kit^+ expressing stem cells in the lung vessels of Sugen/Hypoxia rats (SuHx) treated with a vehicle (SuHx-vehicle) and Sugen/Hypoxia rats treated with TTM (SuHx-TTM) in an amount of 10 mg/kg every other day for 10 days. Third, copper plays a role in the alteration of genes of the cytochrome P450. The lung and, in particular, the lung vascular endothelial cells (EC) are involved in drug metabolism and the handling of toxic substances. It is known that cigarette smoke toxins highly up-regulate the expression of specific drug metabolizing genes, the genes of the cytochrome P450 super-family. There are 56 known cytochrome P450 genes coding for 56 isozymes. These enzymes metabolize 75% of all drugs in use, including all of the vasodilator drugs conventionally used for PAH treatment. These enzymes also are involved in cell growth and differentiation, in cholesterol and estrogen metabolism and for many years a role of these enzymes in the pathogenesis of cancers has been examined (in particular prostate, breast and lung cancer) (Kwapiszewska G et al, Circulation Research, submitted 2019). Norbert F. Voelkel discovered that the drug Sugen 5416, a component of the Sugen-induced rat models of angio-obliterative PAH, induces some of these cytochrome P450 isozyme genes more than 200-fold (Al-Husseini et al, Pulm Circ. 2015 March; 5(1); 101-116). […] Specifically, the vessel lumina are occluded in the not-treated animals (SuHx), whereas they have been reopened after the treated animals (SuHx+TTM) received 10 mg/kg TTM every other day for 10 days. […] The treatment lasted 3 weeks (21 days) with DEC being administered in an amount of 50 mg/kg daily treatment. Norbert F. Voelkel concludes that the anti-inflammatory drug DEC affects developing PAH and is partially effective once angio-obliterative PAH has been established.

For data set [2], the system named is patient with pulmonary veno-occlusive disease (PVOD). Kind of data set: Low-dose MTX treatment of one patient with pulmonary veno-occlusive disease. Type of data set: in vivo, human. The text has this: Another possible co-drug is methotrexate. […] MTX is of particular interest because it is an inhibitor of the enzyme dihydrofolate reductase and thereby inhibits DNA, RNA and protein synthesis, which is the desired action in cancer treatment at high MTX doses. Norbert Voelkel has prescribed MTX for one patient with pulmonary veno-occlusive disease, which is a rare form of severe PH. […] The anti-inflammatory and immune system affecting action of MTX is accomplished with low doses. […] PVOD is a fatal and extremely rare PH disorder. […] Vasodilator-induced lung edema precludes the use of vasodilator drugs in these patients.

Data set [3] has as its system cytochrome P450 isozyme genes. Kind of data set: Induction of cytochrome P450 isozyme genes by Sugen 5416. Particulars: Al-Husseini et al, Pulm Circ. 2015. The text has this:
Third, copper plays a role in the alteration of genes of the cytochrome P450. The lung and, in particular, the lung vascular endothelial cells (EC) are involved in drug metabolism and the handling of toxic substances. It is known that cigarette smoke toxins highly up-regulate the expression of specific drug metabolizing genes, the genes of the cytochrome P450 super-family. There are 56 known cytochrome P450 genes coding for 56 isozymes. These enzymes metabolize 75% of all drugs in use, including all of the vasodilator drugs conventionally used for PAH treatment. These enzymes also are involved in cell growth and differentiation, in cholesterol and estrogen metabolism and for many years a role of these enzymes in the pathogenesis of cancers has been examined (in particular prostate, breast and lung cancer) (Kwapiszewska G et al, Circulation Research, submitted 2019). Norbert F. Voelkel discovered that the drug Sugen 5416, a component of the Sugen-induced rat models of angio-obliterative PAH, induces some of these cytochrome P450 isozyme genes more than 200-fold (Al-Husseini et al, Pulm Circ. 2015 March; 5(1); 101-116). […] Specifically, the vessel lumina are occluded in the not-treated animals (SuHx), whereas they have been reopened after the treated animals (SuHx+TTM) received 10 mg/kg TTM every other day for 10 days.

The subject of data set [4] is Sugen/Hypoxia rats (SuHx) with established PAH. The conditions noted are these: Farkas D. et al 2014; cited from earlier work.
The next data set concerns rodent models of PH. Particulars: in vivo; cited from earlier work.
Another data set has as its system angiogenesis. The conditions noted are these: high dosage; through the induction of apoptosis; cited from earlier work.
For data set [5], the system named is silica-induced lung inflammation and fibrosis. Particulars: by inhibiting T-helper 17 cell (TH 17); cited from earlier work.
Another data set concerns colon cancer. Particulars: by apoptosis and cellular senescence; cited from earlier work.
Data set [6] relates to monocrotaline-induced pulmonary hypertension. Particulars: through the bone morphogenetic protein signaling pathway; cited from earlier work.
Setting [7] is: established severe PAH, treated for two weeks.
Where [8] appears, read: DEC study 2015 (Al Husseini et al).
Where [9] appears, read: after lung vascular disease established, 50 mg/kg daily for 3 weeks (21 days).

Entries after “also recorded” stand apart in the source; their conditions may differ.

On to `[NH4+].[NH4+].[SH-].[SH-].[S]=[Mo]=[S]` [TTM, ammonium tetrathiomolybdate], for which the “expression of integrin protein alpha v beta 3 in lung (FIGS. 4A, B)” value in data set [1] (10 mg/kg every other day for 10 days) is “reduced; also recorded: normalized”. Also, the “lung vessel lumina / arterioles (immunohistochemistry, FIG. 2)” value in data set [1] (10 mg/kg every other day for 10 days, intraperitoneal, SuHx+TTM vs SuHx) is “reopened; also recorded: reopens lung arterioles”. Further, the “number of c-kit+ precursor cells in the lung vascular lesions (FIG. 5)” value in [1] (10 mg/kg every other day for 10 days, vs SuHx-vehicle) is “reduced the number of c-kit+ precursor cells”. The “expression of anoikis marker protein BIM in lung tissue (FIG. 3)” value in data set [1] (SuHx-TTM vs SuHx, referenced to beta-actin) is given as “upregulated”. In data set [1] (TTM-treated SuHx rats), the “anoikis, evidenced by cells expressing the marker BIM” value was “induced anoikis”. Also, in [1] (setting [7]), the occluded lung vessels result is “reopening of occluded lung vessels”, the pulmonary arterial pressure entry is on record as “cut the pulmonary arterial pressure in half” and the “reversal of established severe PAH” value is given as “reversed the PAH”.

For `CCN(CC)C(=O)N1CCN(C)CC1` [DEC, diethylcarbamazine], in [1] (setting [8]), the “muscularization of pulmonary arterioles” value is “blunted” and the “number of fully obliterated lung vessels” value is listed as “reduced”. The “occluded vessels (FIGS. 8A-C)” value in [1] (SuHx+DEC vs SuHx) is on record as “reopens occluded vessels”. Besides, in [1] (setting [9]), the “degree of PAH” value is “reduced”, the “degree of perivascular inflammation” value is “reduced” and the “number of obliterated arterioles” value is recorded as “reduced”.

On to `CN(Cc1cnc2nc(N)nc(N)c2n1)c1ccc(C(=O)N[C@@H](CCC(=O)O)C(=O)O)cc1` [MTX, Methotrexate], for which, in data set [2], the “reversal of the PH” value is recorded as “did not reverse the PH” and the survival result is “prolonged survival”. Moreover, the “progression of the disease (PVOD)” value in [2] (low dose MTX) is reported as “arrested the proliferative progression; also recorded: halted”.

Regarding `Cc1cc(C)c(/C=C2\C(=O)Nc3ccccc32)[nH]1` [Sugen 5416], the “induction of some cytochrome P450 isozyme genes” value in data set [3] is on record as “more than 200 fold”.

As for `S=C(S)N1CCCC1` [pyrrolidine dithiocarbamate], the “reversal of established angio-obliterative PAH” value in data set [4] is recorded as “reverse established angio-obliterative PAH”.

Turning to `O=c1c(O)c(-c2ccc(O)c(O)c2)oc2cc(O)cc(O)c12` [Quercetin], in the data set on rodent models of PH, the “vascular remodeling in rodent models of PH” value is listed as “inhibit”.

For `O=C(O)[C@H]1O[C@@H](Oc2cc3oc(-c4ccccc4)cc(=O)c3c(O)c2O)[C@H](O)[C@@H](O)[C@@H]1O` [baicalin], the angiogenesis entry with angiogenesis is on record as “inhibit angiogenesis”. Moreover, in data set [5], the “silica-induced lung inflammation and fibrosis” value is reported as “alleviate”. In addition, the colon cancer entry in the data set on colon cancer is given as “inhibit colon cancer”. For the same compound, the monocrotaline-induced pulmonary hypertension result in data set [6] is “attenuate”.
